Measured values from patent US20240398697A1, “Injectable Formulations” (The University of Liverpool, priority 2021, published 2024).
Where two headings read alike, the source gives them in different places.

What was measured:
[1] = Ex vivo skin deposition, modified Franz diffusion cell; assay type: in vitro ADME
Method: Ex vivo skin deposition experiments were carried out utilising a modified Franz diffusion cell. Full thickness skin was collected and excised within 24 hours of birth. On the day of the experiment, the skin was first pre-equilibrated in PBS at pH 7.4 for 30 minutes until totally thawed and then carefully shaved using a razor. It was then cyanoacrylate-glued to the donor compartment of the Franz diffusion cells to ensure its adhesion to the set up during the microneedle insertion and throughout the experiment. Microneedle arrays were applied to the skin using firm thumb pressure for 30 seconds. A stainless-steel cylinder (diameter 11 mm, mass 11.5 g) was put on the top of each microneedle array to hold them in place throughout the experiment. The receiver compartment was filled with 12 mL of 1% w/v SLS in PBS (pH 7.4). The donor compartment was clamped on top of the receiver compartment and wrapped with Parafilm® M to prevent solvent evaporation. Samples of 200 μL of the receiver compartment were taken at predefined time points of 0.5, 1, 1.5, 2, 3, 4, 6, 10, and 24 hours and was replaced with the fresh release medium. At 24 hours, the Franz cells were disassembled, the skin surface dabbed clean to remove surface drug, and glecaprevir and pibrentasvir were extracted from skins. Cumulative amounts of glecaprevir and pibrentasvir delivered from each formulation to both skin and receiver compartments were also determined. To extract the drug from the skin, skin samples collected at 24 hours were cut into small pieces, where 0.5 ml of water was added to each sample. They were then homogenised for 15 minutes using a Tissue Lyser LT. Subsequently, 1 mL of methanol was added, and samples were homogenised again for another 15 minutes. Then they were transferred to the tubes followed by adding 3.5 mL of methanol. After a 30-min sonication, 100 μL of the samples were diluted to 1 mL by PBS buffer. The samples were vortexed and centrifuged, then analysed by HPLC.

[2] = Terminal half-life of conventional aqueous formulations injected intramuscularly; set-up: species or system adult male Wistar rats; conditions: male, Wistar, rat, in vivo, im
Excerpt: The foregoing experiments have shown that solid compositions comprising microparticles of glecaprevir and/or pibrentasvir may be formed through combination with certain first and second excipients. […] The solid compositions have also been reformulated into implantable rods, and microneedle arrays. Any of the solid compositions, aqueous dispersions, implantable rods, and microneedle arrays are expected to be therapeutically useful based on the known therapeutic uses of glecaprevir and pibrentasvir and the well-tolerated nature of the first and second excipients used. In addition, the form of the solid composition, aqueous dispersion, implantable rod, and microneedle array are expected to provide enhanced pharmacokinetic properties and therapeutic benefits when compared to conventional glecaprevir and pibrentasvir orally-dosed formulations. […] In particular, the formulations comprising microparticles of glecaprevir and/or pibrentasvir as described herein are expected to greatly improve the terminal half-life of the glecaprevir and/or pibrentasvir in vivo as compared to conventional aqueous formulations in which the glecaprevir and/or pibrentasvir are solubilised through addition of DMSO, when the formulations are delivered as intramuscular and/or subcutaneous injections.

[3] = In vivo plasma concentration after microneedle, intramuscular and intravenous administration (Example 22); set-up: species or system Female Sprague-Dawley rats; conditions: 5 mg/kg IV in DMSO/PEG 400/cyclodextrin; monitored 48 hour
Method: Animals were separated into three cohorts; each was comprised of 6 rats. Every 3 rats were housed in a different cage. Each rat of the first cohort (rats 1-6) received four microneedle arrays with a total dose of 16 mg (8 mg of glecaprevir and 8 mg of pibrentasvir). The second cohort (rats 7-12) received intramuscular injections of glecaprevir and pibrentasvir. For each rat, 37.5 mg of the glecaprevir30/pibrentasvir30/[…]10 formulation was dispersed in 300 μL of sterile water, then 150 μL of the solution was injected into each thigh of the rat. The dose given to each rat was approximately […]. The final cohort (rats 13-18) received 5 mg/kg of glecaprevir and pibrentasvir given as IV injections. The IV formulations were prepared by dissolving each drug in 5% v/v DMSO, 10% v/v PEG 400 in water diluted with 20% v/v hydroxy-B-cyclodextrin in water. To minimise the interference of hair in application of the microneedle arrays, the dorsal hair of the rats from the first cohort (rats 1-6) was removed prior to the experiment. The bulk hair was shaved using an electric hair clipper and the remaining hair residuals were removed using depilatory hair removal cream. Rats were then left for a 24 hour period to allow the skin to recover and to ensure complete restoration of skin barrier function before affixing the microneedle arrays. […]

Row | deposited into the skin ([1]; from microneedle arrays, over 24 h) | delivered to the receiver compartment of the Franz diffusion cells ([1]; from microneedle arrays, over 24 h, receiver 1% w/v SLS in PBS pH 7.4) | total amount delivered to the skin and receiver compartment ([1]; from microneedle arrays, over 24 hours) | total amount delivered as share of drug initially present in the microneedle arrays ([1]; over 24 hours) | half-life ([2]; conventional aqueous formulation (solubilised through addition of DMSO), injected intramuscularly, read-out: terminal half-life (converted)) | delivered to the receiver compartment of the Franz diffusion cells ([1]; 24 h, pH 7.4) | deposited into the skin ([1]; 24 h, pH 7.4) | total amount delivered as share of drug initially present in the microneedle arrays ([1]; 24 h, pH 7.4) | total amount delivered to the skin and receiver compartment ([1]; 24 h, pH 7.4) | half-life [2] | Structure (SMILES) | plasma concentration after intravenous (IV) administration [3]
1 | 285.2 ± 51.3 µg | 203.9 ± 41.3 µg | 489.1 ± 68.6 µg | 25.1±3.5% | 4 h | – | – | – | – | – | CC(C)(C)[C@@H]1NC(=O)O[C@@H]2CCC[C@H]2OC/C=C/C(F)(F)c2nc3ccccc3nc2O[C@@H]2C[C@@H](C(=O)N[C@]3(C(=O)NS(=O)(=O)C4(C)CC4)C[C@H]3C(F)F)N(C2)C1=O [glecaprevir, Glecaprevir] | subsided quickly within the 48 hour period
2 | – | – | – | – | – | 115.2 ± 29 µg | 304 ± 45.7 µg | 23.4±3.2% | 419.2 ± 56.6 µg | 10 h | COC(=O)N[C@H](C(=O)N1CCC[C@H]1c1nc2cc([C@H]3CC[C@H](c4cc5nc([C@@H]6CCCN6C(=O)[C@@H](NC(=O)OC)[C@@H](C)OC)[nH]c5cc4F)N3c3cc(F)c(N4CCC(c5ccc(F)cc5)CC4)c(F)c3)c(F)cc2[nH]1)[C@@H](C)OC [pibrentasvir, Pibrentasvir] | –
